Where two headings read alike, the source gives them in different places.
Tests used:
[1] = test system: spontaneously hypertensive rats (SHR); experiment: Antihypertensive activity on spontaneously hypertensive rats (SHR); format: in vivo, rat; settings: for Mean arterial pressure % reduction: SHR; for hypotensive activity: result in words
mouse [2] = experiment: Locomotor activity in the mouse; format: in vivo
guinea pig platelet = experiment: In vitro guinea pig platelet aggregation induced by ADP; format: cell-based; settings: guinea pig platelets
Description: Moreover, compounds (I) have an effective antiag gregating activity on the in vitro guinea pig platelet aggregation induced by ADP.

isolated rat uterus = test system: isolated rat uterus
Description: All the compounds of the invention have a marked antiserotonin activity in the in vitro test on isolated rat uterus.

reserpinized rat = experiment: Antihyperprolactinemic activity in the reserpinized rat; format: in vivo; settings: for Plasmatic prolactin % reduction: reserpinized rat; for antihyperprolactinemic activity: result in words
Description: All compounds (I) have a marked antihyperprolactinemic activity in the reserpinized rat.

rat = experiment: Stereotypy test in the rat; format: in vivo; settings: for Mean score: stereotypy, rat; for activity on C.N.S.: result in words
rat seminal vesicle = experiment: Adrenolytic activity, in vitro rat seminal vesicle test
Description: Most of the compounds of formula (I) have a marked adrenolytic activity in the in vitro rat seminal vesicle test.

mouse [3] = experiment: Acute toxicity by the oral route in the mouse; format: in vivo
[4] = antiserotonin activity, in vitro isolated rat uterus
[5] = After 1 hour (dose 0.25 mg/kg os)
[6] = After 2 hours (dose 0.50 mg/kg os)

CC(C)C[C@H]1C(=O)N2CCC[C@H]2[C@]2(O)O[C@](NC(=O)[C@@H]3C[C@@H]4c5cccc6[nH]cc(c56)C[C@H]4N(C)C3)(C(C)C)C(=O)N12 [Dihydro-α-ergocryptine, reference compound]
Mean arterial pressure % reduction ([1]; dose = 1 mg/kg i.p.): 18.3% | Mean arterial pressure % reduction ([1]; dose = 3 mg/kg i.p.): 29.0% | % inhibition (mouse [2]; dose 20 mg/kg i.p.): 74.3% | Platelet aggregation % reduction (guinea pig platelet; Dose 20 mcg/ml): 25% | ED₅₀ (isolated rat uterus; [4]): 0.035 µg/mL | Plasmatic prolactin % reduction (reserpinized rat; [5]): 52.4% | Plasmatic prolactin % reduction (reserpinized rat; [6]): 66.1%

CC(C)[C@@]1(NC(=O)[C@@H]2C[C@@H]3c4cccc5[nH]cc(c45)C[C@H]3N(C)C2)O[C@@]2(O)[C@@H]3CCCN3C(=O)[C@H](Cc3ccccc3)N2C1=O [Dihydroergocristine, reference compound]
Mean arterial pressure % reduction ([1]; dose = 1 mg/kg i.p.): 18.1% | Mean arterial pressure % reduction ([1]; dose = 3 mg/kg i.p.): 32.0% | % inhibition (mouse [2]; dose 10 mg/kg i.p.): 47.7% | Platelet aggregation % reduction (guinea pig platelet; Dose 40 mcg/ml): 25% | ED₅₀ (isolated rat uterus; [4]): 0.007 µg/mL | Mean score (rat; dose 10 mg/kg i.p.): 2.37 | Plasmatic prolactin % reduction (reserpinized rat; [5]): 47.4%

CC[C@@H](CO)NC(=O)[C@@H]1C=C2c3cccc4[nH]cc(c34)C[C@H]2N(C)C1 [Methylergometrine, reference compound]
Mean arterial pressure % reduction ([1]; dose = 1 mg/kg i.p.): 15.7% | Mean arterial pressure % reduction ([1]; dose = 3 mg/kg i.p.): 29.4%

CC[C@@H](CO)NC(=O)[C@@H]1C=C2c3cccc4c3c(cn4C)C[C@H]2N(C)C1 [Methysergid, reference compound]
ED₅₀ (rat seminal vesicle): 2.48 µg/mL

COC(=O)[C@@H]1CCCN1C(=O)[C@@H]1C=C2c3cccc4[nH]cc(c34)C[C@H]2N(C)C1.O=C(O)/C=C\C(=O)O [P 1409, N-(D-Lysergyl)-L-proline methyl ester maleate]
Mean arterial pressure % reduction ([1]; dose = 1 mg/kg i.p.): 22.1% | Mean arterial pressure % reduction ([1]; dose = 3 mg/kg i.p.): 27.5% | hypotensive activity [1]: high hypotensive activity | % inhibition (mouse [2]; dose 2.5 mg/kg i.p.): 69.5% | ED₅₀ (isolated rat uterus): 0.010 µg/mL | antiserotonin activity (isolated rat uterus): remarkable antiserotonin activity | ED₅₀ (rat seminal vesicle): 1.02 µg/mL | activity on C.N.S. (rat): marked activity on C.N.S. | Mean score (rat; dose 1.25 mg/kg i.p.): 1.00

CN1C[C@H](C(=O)N2CCC[C@H]2CO)C=C2c3cccc4[nH]cc(c34)C[C@H]21.O=C(O)/C=C\C(=O)O [P 1410]
Mean arterial pressure % reduction ([1]; dose = 1 mg/kg i.p.): 17.8% | hypotensive activity [1]: high hypotensive activity | ED₅₀ (isolated rat uterus; [4]): 0.059 µg/mL | antiserotonin activity (isolated rat uterus; result in words): remarkable antiserotonin activity | activity on C.N.S. (rat): marked activity on C.N.S. | Mean score (rat; dose 10 mg/kg i.p.): 2.62 | Plasmatic prolactin % reduction (reserpinized rat; [5]): 65.7% | antihyperprolactinemic activity (reserpinized rat): interesting antihyperprolactinemic activity

CN1C[C@H](C(=O)N2CCC[C@H]2C(=O)O)C=C2c3cccc4[nH]cc(c34)C[C@H]21 [P 1411]
% inhibition (mouse [2]; dose 20 mg/kg i.p.): 80.9% | ED₅₀ (isolated rat uterus; [4]): 0.370 µg/mL

COC(=O)[C@@H]1C[C@@H](O)CN1C(=O)[C@@H]1C=C2c3cccc4[nH]cc(c34)C[C@H]2N(C)C1.O=C(O)/C=C\C(=O)O [P 1413, N-(D-Lysergyl)-4-hydroxy-L-proline methyl ester maleate]
ED₅₀ (isolated rat uterus): 0.004 µg/mL | antiserotonin activity (isolated rat uterus): remarkable antiserotonin activity

CN1C[C@H](C(=O)N2C[C@H](O)C[C@H]2CO)C=C2c3cccc4[nH]cc(c34)C[C@H]21 [P 1414, N-(D-Lysergyl)-4-hydroxy-L-prolinol]
Mean arterial pressure % reduction ([1]; dose = 1 mg/kg i.p.): 17.9% | Mean arterial pressure % reduction ([1]; dose = 3 mg/kg i.p.): 31.2% | hypotensive activity [1]: high hypotensive activity | ED₅₀ (isolated rat uterus; [4]): 0.007 µg/mL

CN1C[C@H](C(=O)N2CC(O)C[C@H]2CO)C=C2c3cccc4[nH]c(Br)c(c34)C[C@H]21 (stereo partly shown) [P 1415]
ED₅₀ (isolated rat uterus; [4]): 0.015 µg/mL | antiserotonin activity (isolated rat uterus; result in words): remarkable antiserotonin activity | ED₅₀ (rat seminal vesicle): 0.95 µg/mL

CN1C[C@H](C(=O)N2CC(O)C[C@H]2CO)C=C2c3cccc4c3c(cn4C)C[C@H]21.Cl (stereo partly shown) [P 1417]
ED₅₀ (isolated rat uterus; [4]): 0.001 µg/mL | antiserotonin activity (isolated rat uterus; result in words): remarkable antiserotonin activity | ED₅₀ (rat seminal vesicle): 3.52 µg/mL

CN1C[C@H](C(=O)N2CCC[C@H]2C#N)C=C2c3cccc4[nH]cc(c34)C[C@H]21.Cl [P 1419]
acute toxicity (mouse [3]): slightly more toxic | % inhibition (mouse [2]; dose 0.625 mg/kg i.p.): 63.2% | ED₅₀ (isolated rat uterus; [4]): 0.073 µg/mL | ED₅₀ (rat seminal vesicle): 0.22 µg/mL | activity on C.N.S. (rat): marked activity on C.N.S. | Mean score (rat; dose 0.625 mg/kg i.p.): 2.50 | Plasmatic prolactin % reduction (reserpinized rat; [5]): 68.4% | Plasmatic prolactin % reduction (reserpinized rat; [6]): 84.1% | antihyperprolactinemic activity (reserpinized rat): interesting antihyperprolactinemic activity

CN1C[C@H](C(=O)N2CCC[C@H]2C#N)C=C2c3cccc4c3c(cn4C)C[C@H]21.Cl [P 1420]
acute toxicity (mouse [3]): slightly more toxic | % inhibition (mouse [2]; dose 5 mg/kg i.p.): 82.7% | ED₅₀ (isolated rat uterus; [4]): 0.003 µg/mL | antiserotonin activity (isolated rat uterus; result in words): remarkable antiserotonin activity | ED₅₀ (rat seminal vesicle): 0.50 µg/mL | activity on C.N.S. (rat): marked activity on C.N.S. | Mean score (rat; dose 2.5 mg/kg i.p.): 2.17 | Plasmatic prolactin % reduction (reserpinized rat; [5]): 50.1% | antihyperprolactinemic activity (reserpinized rat): interesting antihyperprolactinemic activity

CN1C[C@H](CN2CCC[C@H]2CO)C=C2c3cccc4[nH]cc(c34)C[C@H]21.Cl.Cl [P 1421]
Platelet aggregation % reduction (guinea pig platelet; Dose 40 mcg/ml): 25% | ED₅₀ (isolated rat uterus; [4]): 0.011 µg/mL | antiserotonin activity (isolated rat uterus; result in words): remarkable antiserotonin activity | ED₅₀ (rat seminal vesicle): 2.82 µg/mL

CN1CC(C(=O)N2CC(O)CC2CO)CC2c3cccc4[nH]cc(c34)CC21 (stereo not shown) [P 1422]
Mean arterial pressure % reduction ([1]; dose = 1 mg/kg i.p.): 18.8% | Mean arterial pressure % reduction ([1]; dose = 3 mg/kg i.p.): 40.8% | hypotensive activity [1]: high hypotensive activity | % inhibition (mouse [2]; dose 20 mg/kg i.p.): 79.8% | ED₅₀ (isolated rat uterus; [4]): 0.014 µg/mL | antiserotonin activity (isolated rat uterus; result in words): remarkable antiserotonin activity | ED₅₀ (rat seminal vesicle): 2.89 µg/mL | Plasmatic prolactin % reduction (reserpinized rat; [5]): 77.1% | antihyperprolactinemic activity (reserpinized rat): interesting antihyperprolactinemic activity

CC(C)C[C@H]1C(=O)N2CCC[C@H]2[C@]2(O)O[C@](NC(=O)[C@@H]3C=C4c5cccc6[nH]c(Br)c(c56)C[C@H]4N(C)C3)(C(C)C)C(=O)N12 [α-Bromocryptine, reference compound]
% inhibition (mouse [2]; dose 10 mg/kg i.p.): 78.7% | Platelet aggregation % reduction (guinea pig platelet; Dose 80 mcg/ml): 25% | ED₅₀ (isolated rat uterus; [4]): 0.470 µg/mL | Mean score (rat; dose 10 mg/kg i.p.): 2.25 | Plasmatic prolactin % reduction (reserpinized rat; [5]): 78.2% | Plasmatic prolactin % reduction (reserpinized rat; [6]): 80.9%

Source: patent publication EP0411495A2, “Ergoline derivatives of proline and related compounds having dopaminergic activity” (priority 1989, dated 1991)
